Measurements as given in publication PMC12557437, “Research towards selective inhibition of the CLK3 kinase” (Beilstein Journal of Organic Chemistry, 2025).
Several values for one entry are separate records, joined by “and”; a condition that tells them apart may be missing. Equal entries are not always repeated.

Legend:
[1] = target: Hs_GSK3β (Homo sapiens, UniProt P49841); experiment: primary screening, short panel of mammalian kinases; assay type: biochemical; settings: ATP 10 µM, means, n = 2, read-out: Residual kinase activity Hs_GSK3β; for remaining activity at 1 µM: compound 1 μM; for remaining activity at 10 µM: compound 10 μM
Hs_GSK3β, sequence (P49841 whole entry): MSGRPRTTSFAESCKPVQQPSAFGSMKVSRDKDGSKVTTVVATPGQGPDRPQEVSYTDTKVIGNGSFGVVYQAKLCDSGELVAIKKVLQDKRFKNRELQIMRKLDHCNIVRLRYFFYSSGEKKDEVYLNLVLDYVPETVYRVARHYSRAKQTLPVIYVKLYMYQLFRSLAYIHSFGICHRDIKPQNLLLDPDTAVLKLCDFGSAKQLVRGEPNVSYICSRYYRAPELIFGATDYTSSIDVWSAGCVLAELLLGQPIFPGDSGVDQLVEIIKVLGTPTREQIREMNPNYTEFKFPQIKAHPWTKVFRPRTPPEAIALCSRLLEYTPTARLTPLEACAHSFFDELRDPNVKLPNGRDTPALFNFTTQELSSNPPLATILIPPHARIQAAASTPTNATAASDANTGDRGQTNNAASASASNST
From the text: (§1) Our molecules have been submitted first to a primary screening against a panel of eight disease-related kinases: five members of the CMGC (for CDK, MAPK, GSK3, and CLK) group (CDK5/p25, CDK9/CyclinT, GSK3β, CLK1 and DYRK1A), one CAMK (calmodulin/calcium regulated kinase PIM1), one CK1 (the casein kinase CK1ε), and haspin as a […] kinase.
(§2) Figure 4 Primary evaluation of the inhibition of the new quinazolines against a short panel of mammalian kinases. Residual kinase activities are expressed in % of maximal activity, i.e., measured in the absence of inhibitor but with an equivalent dose of DMSO (solvent of the tested compounds). ATP concentration used in the kinase assays was 10 µM (values are means, n = 2). Kinases are from human origin (Homo sapiens) except CLK1 (from Mus musculus) and DYRK1A (from Rattus norvegicus). […]

[2] = target: Hs_CK1ε (Homo sapiens, UniProt P49674); experiment: as above; assay type: biochemical; settings: ATP 10 µM, means, n = 2, read-out: Residual kinase activity Hs_CK1ε; for remaining activity at 1 µM: compound 1 μM; for remaining activity at 10 µM: compound 10 μM
Hs_CK1ε, sequence (P49674 whole entry): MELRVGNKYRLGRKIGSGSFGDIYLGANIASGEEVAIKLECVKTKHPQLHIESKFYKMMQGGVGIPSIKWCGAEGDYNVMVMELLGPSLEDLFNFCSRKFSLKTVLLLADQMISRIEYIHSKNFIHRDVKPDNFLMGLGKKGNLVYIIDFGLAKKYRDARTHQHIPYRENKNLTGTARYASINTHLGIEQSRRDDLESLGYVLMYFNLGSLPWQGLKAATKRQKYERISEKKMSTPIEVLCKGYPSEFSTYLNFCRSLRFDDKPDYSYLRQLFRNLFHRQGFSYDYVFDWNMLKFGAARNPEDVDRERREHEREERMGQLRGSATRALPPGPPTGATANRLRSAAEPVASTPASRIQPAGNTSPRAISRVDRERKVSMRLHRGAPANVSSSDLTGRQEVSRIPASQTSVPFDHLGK
From the text: as §1, §2

[3] = target: T1, Mm_CLK1 (Mus musculus, UniProt P22518); experiment: as above; assay type: biochemical; settings: for remaining activity at 1 µM: compound 1 μM; for remaining activity at 1 µM / remaining activity at 10 µM: ATP 10 µM, means, n = 2, read-out: Residual kinase activity Mm_CLK1; for remaining activity at 10 µM: compound 10 μM; for activity against CLK1 in primary screening: 1 and 10 µM
T1 sequence (P22518 whole entry): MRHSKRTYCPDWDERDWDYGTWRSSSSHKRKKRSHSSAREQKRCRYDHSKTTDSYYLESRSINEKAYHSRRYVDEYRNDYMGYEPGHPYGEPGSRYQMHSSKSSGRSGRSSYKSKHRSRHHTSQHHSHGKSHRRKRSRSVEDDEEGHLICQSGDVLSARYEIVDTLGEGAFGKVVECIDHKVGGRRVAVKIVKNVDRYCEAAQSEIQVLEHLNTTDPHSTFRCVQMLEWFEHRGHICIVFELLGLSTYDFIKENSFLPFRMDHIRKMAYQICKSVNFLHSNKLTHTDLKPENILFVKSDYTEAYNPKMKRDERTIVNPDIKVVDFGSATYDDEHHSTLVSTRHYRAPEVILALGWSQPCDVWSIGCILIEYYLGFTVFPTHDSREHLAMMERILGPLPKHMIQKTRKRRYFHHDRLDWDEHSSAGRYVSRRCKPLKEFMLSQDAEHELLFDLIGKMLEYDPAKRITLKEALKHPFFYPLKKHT
From the text: as §1, §2

[4] = target: Hs_CDK5/p25 (Homo sapiens, UniProt Q00535); experiment: as above; assay type: biochemical; settings: ATP 10 µM, means, n = 2, read-out: Residual kinase activity Hs_CDK5/p25; for remaining activity at 1 µM: compound 1 μM; for remaining activity at 10 µM: compound 10 μM
Hs_CDK5/p25, sequence (Q00535 whole entry): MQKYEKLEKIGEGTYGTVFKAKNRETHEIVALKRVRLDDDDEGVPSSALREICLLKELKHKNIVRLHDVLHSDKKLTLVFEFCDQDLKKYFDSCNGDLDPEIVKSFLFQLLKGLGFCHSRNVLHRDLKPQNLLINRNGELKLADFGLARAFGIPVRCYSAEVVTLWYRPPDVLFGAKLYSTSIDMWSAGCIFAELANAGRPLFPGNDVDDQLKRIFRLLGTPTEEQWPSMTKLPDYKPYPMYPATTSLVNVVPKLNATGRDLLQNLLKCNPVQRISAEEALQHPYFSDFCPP
Hs_CDK5/p25, sequence (Q15078 99-307 partner limits assumed): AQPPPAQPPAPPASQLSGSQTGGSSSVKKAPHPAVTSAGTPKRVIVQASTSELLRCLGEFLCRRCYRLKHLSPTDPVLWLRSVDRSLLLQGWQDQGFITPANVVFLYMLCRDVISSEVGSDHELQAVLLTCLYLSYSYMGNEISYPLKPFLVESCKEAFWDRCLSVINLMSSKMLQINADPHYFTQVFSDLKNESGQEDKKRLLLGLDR
From the text: as §1, §2

[5] = target: T2, Hs_HASPIN (Homo sapiens, UniProt Q8TF76); experiment: as above; assay type: biochemical; settings: ATP 10 µM, means, n = 2, read-out: Residual kinase activity Hs_HASPIN; for remaining activity at 1 µM: compound 1 μM; for remaining activity at 10 µM: compound 10 μM
T2 sequence (Q8TF76 1-798): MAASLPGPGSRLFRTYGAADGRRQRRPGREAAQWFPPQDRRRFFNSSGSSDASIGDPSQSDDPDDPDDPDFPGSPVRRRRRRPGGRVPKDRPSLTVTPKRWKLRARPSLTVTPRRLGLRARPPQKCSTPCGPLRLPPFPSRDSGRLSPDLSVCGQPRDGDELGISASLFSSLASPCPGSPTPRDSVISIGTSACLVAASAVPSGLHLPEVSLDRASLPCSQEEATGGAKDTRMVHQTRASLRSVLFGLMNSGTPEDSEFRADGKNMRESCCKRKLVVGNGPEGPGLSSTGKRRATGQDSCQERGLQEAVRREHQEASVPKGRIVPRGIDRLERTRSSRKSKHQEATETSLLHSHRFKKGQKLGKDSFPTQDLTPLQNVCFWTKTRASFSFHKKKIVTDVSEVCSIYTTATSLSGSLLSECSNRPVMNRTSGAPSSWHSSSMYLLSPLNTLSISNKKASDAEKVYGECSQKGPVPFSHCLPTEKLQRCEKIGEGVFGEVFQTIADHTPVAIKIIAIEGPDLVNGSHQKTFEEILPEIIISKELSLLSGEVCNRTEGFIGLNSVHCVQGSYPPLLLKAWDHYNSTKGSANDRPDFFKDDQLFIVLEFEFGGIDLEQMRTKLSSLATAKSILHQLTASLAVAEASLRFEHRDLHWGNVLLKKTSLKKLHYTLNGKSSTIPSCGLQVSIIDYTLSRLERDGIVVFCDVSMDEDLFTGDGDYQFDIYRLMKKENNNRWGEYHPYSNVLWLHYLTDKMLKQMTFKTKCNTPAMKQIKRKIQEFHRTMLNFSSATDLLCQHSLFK
From the text: as §1, §2

[6] = target: Hs_PIM1 (Homo sapiens, UniProt P11309); experiment: as above; assay type: biochemical; settings: ATP 10 µM, means, n = 2, read-out: Residual kinase activity Hs_PIM1; for remaining activity at 1 µM: compound 1 μM; for remaining activity at 10 µM: compound 10 μM
Hs_PIM1, sequence (P11309 whole entry): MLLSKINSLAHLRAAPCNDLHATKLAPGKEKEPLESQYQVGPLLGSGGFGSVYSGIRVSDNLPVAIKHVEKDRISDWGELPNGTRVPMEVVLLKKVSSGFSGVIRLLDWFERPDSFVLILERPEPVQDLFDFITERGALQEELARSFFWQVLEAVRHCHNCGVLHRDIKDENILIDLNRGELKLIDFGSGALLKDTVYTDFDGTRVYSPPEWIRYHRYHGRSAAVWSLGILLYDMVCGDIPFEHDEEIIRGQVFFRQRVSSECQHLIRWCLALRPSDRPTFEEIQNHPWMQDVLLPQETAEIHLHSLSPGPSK
From the text: as §1, §2

[7] = target: Hs_CDK9/CyclinT (Homo sapiens, UniProt P50750); experiment: as above; assay type: biochemical; settings: ATP 10 µM, means, n = 2, read-out: Residual kinase activity Hs_CDK9/CyclinT; for remaining activity at 1 µM: compound 1 μM; for remaining activity at 10 µM: compound 10 μM
Hs_CDK9/CyclinT, sequence (P50750 whole entry): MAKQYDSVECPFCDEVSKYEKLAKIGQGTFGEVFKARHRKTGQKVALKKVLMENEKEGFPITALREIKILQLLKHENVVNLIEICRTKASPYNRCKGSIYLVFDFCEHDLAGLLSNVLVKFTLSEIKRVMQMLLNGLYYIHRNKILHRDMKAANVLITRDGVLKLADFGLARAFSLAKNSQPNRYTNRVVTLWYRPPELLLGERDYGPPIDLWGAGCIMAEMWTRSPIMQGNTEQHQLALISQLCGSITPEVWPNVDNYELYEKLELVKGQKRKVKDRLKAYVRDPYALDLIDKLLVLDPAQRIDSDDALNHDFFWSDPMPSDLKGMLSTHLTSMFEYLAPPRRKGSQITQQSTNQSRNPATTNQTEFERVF
Hs_CDK9/CyclinT, sequence (O60563 whole entry partner): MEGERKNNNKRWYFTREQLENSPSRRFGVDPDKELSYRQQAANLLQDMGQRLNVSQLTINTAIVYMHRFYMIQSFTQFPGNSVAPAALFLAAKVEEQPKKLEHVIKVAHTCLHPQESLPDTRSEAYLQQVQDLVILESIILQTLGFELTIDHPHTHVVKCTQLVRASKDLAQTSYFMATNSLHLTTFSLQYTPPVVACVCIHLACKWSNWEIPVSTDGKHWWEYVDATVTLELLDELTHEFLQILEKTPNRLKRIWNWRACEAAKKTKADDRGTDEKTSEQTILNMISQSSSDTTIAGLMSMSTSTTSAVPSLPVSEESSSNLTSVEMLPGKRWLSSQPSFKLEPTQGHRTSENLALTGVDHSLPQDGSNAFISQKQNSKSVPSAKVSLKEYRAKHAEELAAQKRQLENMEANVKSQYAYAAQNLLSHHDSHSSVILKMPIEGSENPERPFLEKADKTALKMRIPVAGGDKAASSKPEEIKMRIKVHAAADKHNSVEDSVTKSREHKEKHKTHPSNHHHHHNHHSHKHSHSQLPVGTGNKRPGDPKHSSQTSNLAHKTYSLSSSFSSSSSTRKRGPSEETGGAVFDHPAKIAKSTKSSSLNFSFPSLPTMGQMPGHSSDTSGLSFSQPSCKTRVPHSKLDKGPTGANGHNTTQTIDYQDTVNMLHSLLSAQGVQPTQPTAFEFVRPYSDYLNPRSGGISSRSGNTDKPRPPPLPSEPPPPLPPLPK
From the text: as §1, §2

[8] = target: Rn_DYRK1A (Rattus norvegicus, UniProt Q63470); experiment: as above; assay type: biochemical; settings: ATP 10 µM, means, n = 2, read-out: Residual kinase activity Rn_DYRK1A; for remaining activity at 1 µM: compound 1 μM; for remaining activity at 10 µM: compound 10 μM
From the text: as §1, §2

[9] = target: T1, Mm_CLK1; experiment: radiometric γ33P-ATP kinase assay (Eurofins); assay type: biochemical; settings: for IC50: 15 µM ATP, dose-response, points in duplicate; for Mm_CLK3/Mm_CLK1: ratio of IC50 values
Description: (§3) The results are reported in Table 2 and in Supporting Information File 1.
(§4) 2- Kinase inhibition studies
(§5) Kinase enzymatic activities were assayed using both luminescent ADP detection assay
(§6) (ADP-GloTM assay kit, Promega, Madison, WI) or radiometric kinase assay. These
(§7) assays were performed using the protocols described in our previous publication. […]
(§8) 1.Brahmaiah, D.; Kanaka Durga Bhavani, A.; Aparna, P.; Sampath Kumar, N.; Solhi,
(§9) H.; Le Guevel, R.; Baratte, B.; Ruchaud, S.; Bach, S.; Singh Jadav, S.; Raji Reddy, C.;
(§10) Roisnel, T.; Mosset, P.; Levoin, N.; Grée, R. Bioorg.
(§11) R.; Baratte, B.; Robert, T.; Ruchaud, S.; Bach, S.; Jadav, S. S.; Reddy, C. […]

[10] = target: Mm_CLK2 (Mus musculus, UniProt O35491); experiment: radiometric γ33P-ATP kinase assay (Eurofins); assay type: biochemical; settings: for IC50: 15 µM ATP, dose-response, points in duplicate; for Mm_CLK3/Mm_CLK2: ratio of IC50 values
Mm_CLK2, sequence (O35491 whole entry): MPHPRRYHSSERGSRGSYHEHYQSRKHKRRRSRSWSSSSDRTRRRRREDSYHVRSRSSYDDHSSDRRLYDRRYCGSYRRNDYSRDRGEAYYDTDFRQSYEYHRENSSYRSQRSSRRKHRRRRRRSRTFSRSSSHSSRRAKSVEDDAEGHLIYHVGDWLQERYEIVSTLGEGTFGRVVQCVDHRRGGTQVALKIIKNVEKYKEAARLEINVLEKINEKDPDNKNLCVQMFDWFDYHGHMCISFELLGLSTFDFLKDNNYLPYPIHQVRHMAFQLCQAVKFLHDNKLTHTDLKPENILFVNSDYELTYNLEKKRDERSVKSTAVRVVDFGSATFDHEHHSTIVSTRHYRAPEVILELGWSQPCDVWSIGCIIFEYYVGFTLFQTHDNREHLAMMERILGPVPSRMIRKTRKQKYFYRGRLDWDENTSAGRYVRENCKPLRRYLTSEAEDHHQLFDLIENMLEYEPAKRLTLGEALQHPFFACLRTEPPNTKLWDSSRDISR
Description: as §3, §4, §5, §6, §7, §8, §9, §10, §11

[11] = target: Mm_CLK4 (Mus musculus, UniProt O35493); experiment: radiometric γ33P-ATP kinase assay (Eurofins); assay type: biochemical; settings: for IC50: 15 µM ATP, dose-response, points in duplicate; for Mm_CLK3/Mm_CLK4: ratio of IC50 values
Mm_CLK4, sequence (O35493 whole entry): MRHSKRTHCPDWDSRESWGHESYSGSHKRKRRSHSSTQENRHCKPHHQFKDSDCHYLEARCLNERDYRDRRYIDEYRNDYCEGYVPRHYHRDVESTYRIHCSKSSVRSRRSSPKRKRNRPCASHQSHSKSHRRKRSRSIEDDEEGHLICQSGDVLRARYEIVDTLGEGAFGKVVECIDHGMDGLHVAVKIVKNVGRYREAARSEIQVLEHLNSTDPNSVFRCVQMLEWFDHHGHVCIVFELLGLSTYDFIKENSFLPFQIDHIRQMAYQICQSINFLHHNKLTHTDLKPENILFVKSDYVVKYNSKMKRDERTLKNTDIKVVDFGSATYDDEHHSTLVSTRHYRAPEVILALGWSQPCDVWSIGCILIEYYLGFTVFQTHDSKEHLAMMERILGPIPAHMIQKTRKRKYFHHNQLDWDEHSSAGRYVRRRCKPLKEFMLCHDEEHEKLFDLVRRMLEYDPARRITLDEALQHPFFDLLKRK
Description: as §3, §4, §5, §6, §7, §8, §9, §10, §11

[12] = target: Mm_CLK3 (Mus musculus, UniProt O35492); experiment: radiometric γ33P-ATP kinase assay (Eurofins); assay type: biochemical; settings: 15 µM ATP; dose-response, points in duplicate
Mm_CLK3, sequence (O35492 whole entry): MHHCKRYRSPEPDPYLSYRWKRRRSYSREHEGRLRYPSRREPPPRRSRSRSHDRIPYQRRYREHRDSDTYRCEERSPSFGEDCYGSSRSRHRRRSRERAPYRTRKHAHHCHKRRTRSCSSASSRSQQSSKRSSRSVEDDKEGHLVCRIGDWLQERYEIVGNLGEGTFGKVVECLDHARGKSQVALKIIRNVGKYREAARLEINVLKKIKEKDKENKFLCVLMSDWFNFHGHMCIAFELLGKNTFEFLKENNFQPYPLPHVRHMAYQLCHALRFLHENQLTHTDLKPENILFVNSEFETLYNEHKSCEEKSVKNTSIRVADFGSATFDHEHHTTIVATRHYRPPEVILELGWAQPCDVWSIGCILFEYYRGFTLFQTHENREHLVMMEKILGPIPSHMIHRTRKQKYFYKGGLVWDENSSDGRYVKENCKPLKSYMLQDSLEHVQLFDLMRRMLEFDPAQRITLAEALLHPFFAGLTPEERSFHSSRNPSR
Description: as §3, §4, §5, §6, §7, §8, §9, §10
R.; Baratte, B.; Robert, T.; Ruchaud, S.; Bach, S.; Jadav, S. S.; Reddy, C. R.; Mosset,
P.; Gouault, N.; Levoin, N.; Grée, R. Molecules 2022, 27, 6149. […]

[13] = system: CLK3; settings: human protein kinase; ref 17 (SM08502), 19 (T3), 20-21 (CX-4945), 24 (DB18); cited from earlier work
[14] = system: CLK1; settings: human protein kinase; ref 17 (SM08502), 19 (T3), 20-21 (CX-4945), 24 (DB18); cited from earlier work
[15] = system: CLK2; settings: human protein kinase; ref 17 (SM08502), 19 (T3), 20-21 (CX-4945), 24 (DB18); cited from earlier work
[16] = system: DYRK1A; settings: human protein kinase; ref 17 (SM08502), 19 (T3), 20-21 (CX-4945), 24 (DB18); cited from earlier work
[17] = system: CLK4; settings: human protein kinase; ref 17 (SM08502), 20-21 (CX-4945), 24 (DB18); cited from earlier work

Compound | remaining activity at 1 µM [1] | remaining activity at 10 µM [1] | remaining activity at 1 µM [2] | remaining activity at 10 µM [2] | remaining activity at 1 µM [3] | remaining activity at 10 µM [3] | remaining activity at 1 µM [4] | remaining activity at 10 µM [4] | remaining activity at 1 µM [5] | remaining activity at 10 µM [5] | remaining activity at 1 µM [6] | remaining activity at 10 µM [6] | remaining activity at 1 µM [7] | remaining activity at 10 µM [7] | remaining activity at 1 µM [8] | remaining activity at 10 µM [8] | activity against CLK1 in primary screening [3] | IC50 [9] | Mm_CLK3/Mm_CLK1 [9] | IC50 [10] | further results
COC(=O)c1cccc(-c2cc(Cl)cc(Nc3ncc4cccc(OCc5cn(-c6ccc(C)cc6[N+](=O)[O-])nn5)c4n3)c2)c1 [Compound 12b] | 97% | 62% | ≥ 100% | ≥ 100% | 54% | 48% | 85% | 92% | 47% | 39% | 90% | 98% | 94% | 83% | ≥ 100% | ≥ 100% |  |  |  |  | 
COC(=O)c1ccc(-c2cccc(Nc3ncc4cccc(OCc5cn(-c6ccc(C)cc6[N+](=O)[O-])nn5)c4n3)c2)cc1 [Compound 9a] | 70% | 53% | 78% | 95% | 66% | 58% | 70% | 84% | 95% | ≥ 100% | ≥ 100% | 90% | 98% | 95% | ≥ 100% | ≥ 100% |  |  |  |  | 
Cc1ccc(-n2cc(COc3cccc4cnc(Nc5cc(Cl)cc(-c6ccc(C(=O)O)cc6)c5)nc34)nn2)c([N+](=O)[O-])c1 [Compound 10b] | 92% | 56% | ≥ 100% | 92% | 38% | 8% | 53% | 43% | 85% | 92% | 84% | ≥ 100% | 99% | 66% | 82% | 94% | significant activity against CLK1 | 213 nM | 4.04 | 118 nM | Mm_CLK3/Mm_CLK2 [10]: 7.29; IC50 [11]: 145 nM; Mm_CLK3/Mm_CLK4 [11]: 5.94; IC50 [12]: 861 nM
Cc1ccc(-n2cc(COc3cccc4cnc(Nc5cccc(-c6ccc(C(=O)O)cc6)c5)nc34)nn2)c([N+](=O)[O-])c1 [Compound 10a] | 82% | 32% | 93% | 84% | 15% | 0% | 61% | 70% | 93% | 92% | 80% | ≥ 100% | 84% | 38% | ≥ 100% | 84% | significant activity against CLK1 | 891 nM | 4.18 | 844 nM | Mm_CLK3/Mm_CLK2 [10]: 4.42; IC50 [11]: 762 nM; Mm_CLK3/Mm_CLK4 [11]: 4.90; IC50 [12]: 3700 nM and 3730 nM
COC(=O)c1ccc(-c2cc(Cl)cc(Nc3ncc4cccc(OCc5cn(-c6ccc(C)cc6[N+](=O)[O-])nn5)c4n3)c2)cc1 [Compound 9b] | 90% | 86% | ≥ 100% | ≥ 100% | 60% | 66% | 74% | ≥ 100% | 65% | 43% | ≥ 100% | 96% | 96% | 91% | ≥ 100% | ≥ 100% |  |  |  |  | 
Cc1ccc(-n2cc(COc3cccc4cnc(Nc5cccc(-c6cccc(C(=O)O)c6)c5)nc34)nn2)c([N+](=O)[O-])c1 [Compound 13a] | 95% | 26% | ≥ 100% | ≥ 100% | 44% | 5% | 62% | 9% | 79% | 63% | 68% | ≥ 100% | 83% | 24% | 92% | 60% | significant activity against CLK1 | 680 nM | 2.43 | 278 nM | Mm_CLK3/Mm_CLK2 [10]: 5.95; IC50 [11]: 428 nM; Mm_CLK3/Mm_CLK4 [11]: 3.87; IC50 [12]: 1660 nM
O=C(O)c1ccc2c(c1)nc(Nc1cccc(Cl)c1)c1ccncc12 [CX-4945] |  |  |  |  |  |  |  |  |  |  |  |  |  |  |  |  |  |  |  |  | IC50 [13]: 67 nM; IC50 [14]: 3.3 nM; IC50 [15]: 2.9 nM; IC50 [16]: […]; IC50 [17]: 23 nM
